Assay results published in PMC8776995 (Frontiers in Chemistry, 2022).
Values joined by “and” are separate entries in the source; they are usually repeats but may differ in a detail not shown here. Identical values can stand only once. Like-named read-outs stand apart in the source and are kept apart here. Each block holds one molecule with its values, some of them ahead of it.

Tests used:
A549 cells = test: CCK-8 antiproliferation assay, A549; settings: for Inhibitory efficacy: A549 cells; for Inhibitory efficacy / inhibition at 1 µM / inhibition at 2 µM / inhibition at 4 µM / inhibition at 8 µM / inhibition at 16 µM: given as fraction, Repeat 1-3; for inhibition at 1 µM / inhibition at 2 µM / inhibition at 4 µM / inhibition at 8 µM / inhibition at 16 µM: A549, read-out: Inhibitory efficacy, A549 cells
H1975 cells = test: CCK-8 antiproliferation assay, H1975; settings: for Inhibitory efficacy: H1975 cells; for IC50: NCI-H1975, 48 h
wild-type EGFR = wild-type EGFR (Homo sapiens, UniProt P00533); test: EGFR kinase assay (ELISA); settings: for A450: raw ELISA absorbance
Sequence of wild-type EGFR (P00533 25-1210): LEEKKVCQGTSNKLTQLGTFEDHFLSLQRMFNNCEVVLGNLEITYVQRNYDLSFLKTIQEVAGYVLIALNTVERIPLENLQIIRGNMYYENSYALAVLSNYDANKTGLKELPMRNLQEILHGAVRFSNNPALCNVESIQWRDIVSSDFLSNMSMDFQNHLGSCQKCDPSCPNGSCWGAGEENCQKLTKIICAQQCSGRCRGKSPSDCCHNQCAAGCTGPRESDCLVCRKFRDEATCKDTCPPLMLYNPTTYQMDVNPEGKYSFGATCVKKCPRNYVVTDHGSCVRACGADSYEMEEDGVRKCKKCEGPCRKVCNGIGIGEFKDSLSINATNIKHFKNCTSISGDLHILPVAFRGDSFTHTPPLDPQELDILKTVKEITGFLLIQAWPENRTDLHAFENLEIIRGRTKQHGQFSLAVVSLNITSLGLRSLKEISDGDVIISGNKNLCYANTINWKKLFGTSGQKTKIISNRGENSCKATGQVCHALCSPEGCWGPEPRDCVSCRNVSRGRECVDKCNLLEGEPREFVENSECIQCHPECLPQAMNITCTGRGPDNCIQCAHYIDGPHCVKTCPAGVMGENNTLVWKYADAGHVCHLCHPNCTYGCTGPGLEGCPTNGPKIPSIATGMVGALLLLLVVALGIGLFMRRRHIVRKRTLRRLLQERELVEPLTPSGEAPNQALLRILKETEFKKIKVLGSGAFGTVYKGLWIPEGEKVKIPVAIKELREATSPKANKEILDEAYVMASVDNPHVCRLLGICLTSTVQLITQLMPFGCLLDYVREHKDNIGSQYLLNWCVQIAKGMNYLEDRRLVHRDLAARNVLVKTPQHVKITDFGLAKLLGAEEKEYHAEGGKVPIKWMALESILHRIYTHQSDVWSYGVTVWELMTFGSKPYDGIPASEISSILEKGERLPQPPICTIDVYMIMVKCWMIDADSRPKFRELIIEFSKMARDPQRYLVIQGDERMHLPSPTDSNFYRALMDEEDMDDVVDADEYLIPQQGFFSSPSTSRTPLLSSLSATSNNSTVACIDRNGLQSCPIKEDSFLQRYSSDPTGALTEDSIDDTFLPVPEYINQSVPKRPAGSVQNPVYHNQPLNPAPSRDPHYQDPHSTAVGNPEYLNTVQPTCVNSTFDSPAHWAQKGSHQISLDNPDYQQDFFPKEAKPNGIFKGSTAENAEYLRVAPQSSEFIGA

PC-9 cells = test: CCK-8 antiproliferation assay, PC-9; settings: for IC50: PC-9, 48 h, read-out: IC50 (μM) PC-9; for inhibition at 8 µM: PC-9, read-out: Inhibitory efficacy, PC-9, 8uM, single repeats (Repeat 1-3), given as fraction; for inhibition at 16 µM: PC-9, read-out: Inhibitory efficacy, PC-9, 16uM, single repeats (Repeat 1-3), given as fraction; for Inhibitory efficacy: single repeats (Repeat 1-3), given as fraction
H460 cells = test: CCK-8 antiproliferation assay, H460; settings: for Inhibitory efficacy: H460 cells; for IC50: NCI-H460, 48 h
PC-9 xenograft = test: In vivo antitumor activity, PC-9 xenograft in NSG mice; design: species or system mouse
Description: The mouse body mass was recorded as well.

[1] = 1uM, given as fraction, Repeat 1-3
[2] = 2uM, given as fraction, Repeat 1-3
[3] = 4uM, given as fraction, Repeat 1-3
[4] = 8uM, given as fraction, Repeat 1-3
[5] = 16uM, given as fraction, Repeat 1-3
[6] = Homo sapiens, NCI-H1975, read-out: Inhibitory efficacy, H1975 cells, 2uM, given as fraction, Repeat 1-3
[7] = Homo sapiens, NCI-H1975, read-out: Inhibitory efficacy, H1975 cells, 4uM, given as fraction, Repeat 1-3
[8] = Homo sapiens, NCI-H1975, read-out: Inhibitory efficacy, H1975 cells, 8uM, given as fraction, Repeat 1-3
[9] = Homo sapiens, NCI-H1975, read-out: Inhibitory efficacy, H1975 cells, 16uM, given as fraction, Repeat 1-3
[10] = Homo sapiens, NCI-H460, read-out: Inhibitory efficacy, H460 cells, 4uM, given as fraction, Repeat 1-3
[11] = Homo sapiens, NCI-H460, read-out: Inhibitory efficacy, H460 cells, 8uM, given as fraction, Repeat 1-3
[12] = Homo sapiens, NCI-H460, read-out: Inhibitory efficacy, H460 cells, 16uM, given as fraction, Repeat 1-3

IC50 (A549 cells; Homo sapiens, A549, 48 h, read-out: IC50 (μM) A549, CCK-8, 48 h, average ± SD of three independent experiments): 5.95 ± 1.47 µM
IC50 (H1975 cells; Homo sapiens, read-out: IC50 (μM) H1975, CCK-8, 48 h, average ± SD of three independent experiments): > 100 µM
IC50 (wild-type EGFR; IC50 (μM) EGFR, ELISA, 3 μmol/L ATP): 4.74 µM
inhibition at 100 fM (wild-type EGFR; concentration 0.0001 nM (reference for normalisation), one value per replicate column): 0%
Inhibition (wild-type EGFR; concentration 0.03 nM, one value per replicate column, 3e-05 µM): 3.252
Inhibition (wild-type EGFR; concentration 0.3 nM, one value per replicate column, 0.0003 µM): 1.084 and 9.485
Inhibition (wild-type EGFR; concentration 3 nM, one value per replicate column, 0.003 µM): 4.065 and 14.0921
Inhibition (wild-type EGFR; concentration 30 nM, one value per replicate column, 0.03 µM): 5.691 and 21.1382
Inhibition (wild-type EGFR; concentration 300 nM, one value per replicate column, 0.3 µM): 10.0271 and 28.9973
inhibition at 3 µM (wild-type EGFR; concentration 3000 nM, one value per replicate column): 30.9%
Inhibition (wild-type EGFR; concentration 3000 nM, one value per replicate column, 3 µM): 29.5393
A450 (wild-type EGFR; concentration 0.0001 nM): 0.702 and 0.668
A450 (wild-type EGFR; concentration 0.03 nM): 0.702 and 0.656
A450 (wild-type EGFR; concentration 0.3 nM): 0.698 and 0.633
A450 (wild-type EGFR; concentration 3 nM): 0.687 and 0.616
A450 (wild-type EGFR; concentration 30 nM): 0.681 and 0.59
A450 (wild-type EGFR; concentration 300 nM): 0.665 and 0.561
A450 (wild-type EGFR; concentration 3000 nM): 0.588 and 0.559
A450 (wild-type EGFR; concentration 30000 nM): 0.333 and 0.299
melting point: 98 to 101 °C
IC50 (PC-9 cells; Homo sapiens): 22.6 ± 1.16 µM
IC50 (H460 cells; Homo sapiens, read-out: IC50 (μM) H460, CCK-8, 48 h, average ± SD of three independent experiments): 11.9 ± 3.63 µM
SMILES: COCCOc1cc2ncnc(Nc3cccc(-c4cn(-c5cccc([N+](=O)[O-])c5)nn4)c3)c2cc1OCCOC [e13, [6,7-Bis-(2-methoxy-ethoxy)-quinazolin-4-yl]-{3-[1-(3-nitro-phenyl)-1H-[1,2,3]triazol-4-yl]-phenyl}-amine]
Inhibitory efficacy (A549 cells; 1uM): 0.1588 and 0.1553
Inhibitory efficacy (A549 cells; 2uM): 0.352 and 0.366
Inhibitory efficacy (A549 cells; 4uM): 0.5268 and 0.5198
Inhibitory efficacy (A549 cells; 8uM): 0.5749 and 0.6133
Inhibitory efficacy (A549 cells; 16uM): 0.6238 and 0.6256
inhibition at 1 µM (A549 cells; Homo sapiens, 1uM): 8.71%
inhibition at 2 µM (A549 cells; Homo sapiens, 2uM): 36.9%
inhibition at 4 µM (A549 cells; Homo sapiens, 4uM): 44.6%
inhibition at 8 µM (A549 cells; Homo sapiens, 8uM): 51.1%
inhibition at 16 µM (A549 cells; Homo sapiens, 16uM): 56.8%
Inhibitory efficacy (H1975 cells; [1]): 0.09975 and 0.197
Inhibitory efficacy (H1975 cells; [2]): 0.1652 and 0.1521
Inhibitory efficacy (H1975 cells; [3]): 0.1521 and 0.1128
Inhibitory efficacy (H1975 cells; [4]): 0.1633 and 0.2344
Inhibitory efficacy (H1975 cells; [5]): 0.1933 and 0.2774
inhibition at 1 µM (H1975 cells; Homo sapiens, NCI-H1975, read-out: Inhibitory efficacy, H1975 cells, 1uM, given as fraction, Repeat 1-3): 14.3%
inhibition at 2 µM (H1975 cells; [6]): 25.5%
inhibition at 4 µM (H1975 cells; [7]): 15%
inhibition at 8 µM (H1975 cells; [8]): 24.2%
inhibition at 16 µM (H1975 cells; [9]): 21%
inhibition at 8 µM (PC-9 cells; Homo sapiens): 12.1%
inhibition at 16 µM (PC-9 cells; Homo sapiens): 28.6%
Inhibitory efficacy (PC-9 cells; PC-9, 8uM, 8 µM): 0.1077 and 0.1459
Inhibitory efficacy (PC-9 cells; PC-9, 16uM, 16 µM): 0.2884 and 0.3336
Inhibitory efficacy (H460 cells; [3]): 0.3261 and 0.3299
Inhibitory efficacy (H460 cells; [4]): 0.4209 and 0.401
Inhibitory efficacy (H460 cells; [5]): 0.4769 and 0.494
inhibition at 4 µM (H460 cells; [10]): 42.4%
inhibition at 8 µM (H460 cells; [11]): 54.8%
inhibition at 16 µM (H460 cells; [12]): 56.2%

IC50 (H1975 cells; Homo sapiens, read-out: IC50 (μM) H1975): 12.7 ± 2.76 µM
IC50 (PC-9 cells; Homo sapiens): 0.21 ± 0.07 µM
IC50 (H460 cells; Homo sapiens, read-out: IC50 (μM) H460): 13.3 ± 1.5 µM
SMILES: C#Cc1cccc(Nc2ncnc3cc(OCCOC)c(OCCOC)cc23)c1 [Erlotinib, reference compound]
Inhibitory efficacy (A549 cells; 1uM): 0.1312 and 0.1478
Inhibitory efficacy (A549 cells; 2uM): 0.2342 and 0.2336
Inhibitory efficacy (A549 cells; 4uM): 0.4482 and 0.3384
Inhibitory efficacy (A549 cells; 8uM): 0.471 and 0.4975
Inhibitory efficacy (A549 cells; 16uM): 0.5265 and 0.5389
inhibition at 1 µM (A549 cells; Homo sapiens, 1uM): 22.3%
inhibition at 2 µM (A549 cells; Homo sapiens, 2uM): 25.5%
inhibition at 4 µM (A549 cells; Homo sapiens, 4uM): 39%
inhibition at 8 µM (A549 cells; Homo sapiens, 8uM): 47.8%
inhibition at 16 µM (A549 cells; Homo sapiens, 16uM): 56%
Inhibitory efficacy (H1975 cells; [2]): 0.1989 and 0.1819
Inhibitory efficacy (H1975 cells; [3]): 0.3103 and 0.3631
Inhibitory efficacy (H1975 cells; [4]): 0.4556 and 0.4424
Inhibitory efficacy (H1975 cells; [5]): 0.4821 and 0.5651
inhibition at 2 µM (H1975 cells; [6]): 20.1%
inhibition at 4 µM (H1975 cells; [7]): 30.1%
inhibition at 8 µM (H1975 cells; [8]): 42.2%
inhibition at 16 µM (H1975 cells; [9]): 55.9%
tumor volume mean (PC-9 xenograft; Day13, group mean): 75.6221 mm3
tumor length (PC-9 xenograft; Day13, individual animals): 5.32 mm and 6.15 mm and 5.63 mm and 5.6 mm and 6.4 mm and 5.64 mm and 7.11 mm
tumor volume (PC-9 xenograft; Day13, individual animals): 68.645 mm3 and 111.069 mm3 and 86.3969 mm3 and 32.368 mm3 and 70.688 mm3 and 54.5952 mm3 and 105.592 mm3
tumor width (PC-9 xenograft; Day13, individual animals): 5.08 mm and 6.01 mm and 5.54 mm and 3.4 mm and 4.7 mm and 4.4 mm and 5.45 mm
tumor volume mean (PC-9 xenograft; Day15, group mean): 46.9389 mm3
tumor length (PC-9 xenograft; Day15, individual animals): 5.43 mm and 5.76 mm and 4.04 mm and 4.28 mm and 5.96 mm and 6.09 mm and 6.46 mm
tumor volume (PC-9 xenograft; Day15, individual animals): 23.7877 mm3 and 44.4813 mm3 and 30.5668 mm3 and 38.11 mm3 and 66.1086 mm3 and 70.1568 mm3 and 55.3609 mm3
tumor width (PC-9 xenograft; Day15, individual animals): 2.96 mm and 3.93 mm and 3.89 mm and 4.22 mm and 4.71 mm and 4.8 mm and 4.14 mm
tumor volume mean (PC-9 xenograft; Day17, group mean): 35.7998 mm3
tumor length (PC-9 xenograft; Day17, individual animals): 4.34 mm and 4.5 mm and 4.68 mm and 3.6 mm and 3.5 mm and 5.64 mm and 5.39 mm
tumor volume (PC-9 xenograft; Day17, individual animals): 40.4974 mm3 and 44.957 mm3 and 28.665 mm3 and 15.138 mm3 and 14.7175 mm3 and 67.7082 mm3 and 38.9158 mm3
tumor width (PC-9 xenograft; Day17, individual animals): 4.32 mm and 4.47 mm and 3.5 mm and 2.9 mm and 4.9 mm and 3.8 mm
tumor volume mean (PC-9 xenograft; Day19, group mean): 14.0038 mm3
tumor length (PC-9 xenograft; Day19, individual animals): 2.66 mm and 3.12 mm and 2.47 mm and 0 mm and 3.83 mm and 4.36 mm and 4.91 mm
tumor volume (PC-9 xenograft; Day19, individual animals): 8.246 mm3 and 6.24 mm3 and 5.446 mm3 and 0 mm3 and 21.1079 mm3 and 22.4629 mm3 and 34.5234 mm3
tumor width (PC-9 xenograft; Day19, individual animals): 2.49 mm and 2 mm and 2.1 mm and 0 mm and 3.32 mm and 3.21 mm and 3.75 mm
inhibition at 1 µM (PC-9 cells; Homo sapiens, PC-9, read-out: Inhibitory efficacy, PC-9, 1uM, single repeats (Repeat 1-3), given as fraction): 60.2%
inhibition at 2 µM (PC-9 cells; Homo sapiens, PC-9, read-out: Inhibitory efficacy, PC-9, 2uM, single repeats (Repeat 1-3), given as fraction): 62.2%
inhibition at 4 µM (PC-9 cells; Homo sapiens, PC-9, read-out: Inhibitory efficacy, PC-9, 4uM, single repeats (Repeat 1-3), given as fraction): 73.2%
inhibition at 8 µM (PC-9 cells; Homo sapiens): 72.2%
inhibition at 16 µM (PC-9 cells; Homo sapiens): 77.6%
Inhibitory efficacy (PC-9 cells; PC-9, 1uM, 1 µM): 0.6098 and 0.6255
Inhibitory efficacy (PC-9 cells; PC-9, 2uM, 2 µM): 0.6294 and 0.6255
Inhibitory efficacy (PC-9 cells; PC-9, 4uM, 4 µM): 0.6922 and 0.7284
Inhibitory efficacy (PC-9 cells; PC-9, 8uM, 8 µM): 0.7167 and 0.7137
Inhibitory efficacy (PC-9 cells; PC-9, 16uM, 16 µM): 0.7578 and 0.7647
Inhibitory efficacy (H460 cells; [1]): 0.09689 and 0.1206
Inhibitory efficacy (H460 cells; [2]): 0.2063 and 0.1995
Inhibitory efficacy (H460 cells; [3]): 0.3477 and 0.3746
Inhibitory efficacy (H460 cells; [4]): 0.4407 and 0.5067
Inhibitory efficacy (H460 cells; [5]): 0.4651 and 0.4816
inhibition at 1 µM (H460 cells; Homo sapiens, NCI-H460, read-out: Inhibitory efficacy, H460 cells, 1uM, given as fraction, Repeat 1-3): 6.64%
inhibition at 2 µM (H460 cells; Homo sapiens, NCI-H460, read-out: Inhibitory efficacy, H460 cells, 2uM, given as fraction, Repeat 1-3): 14.3%
inhibition at 4 µM (H460 cells; [10]): 30%
inhibition at 8 µM (H460 cells; [11]): 47.8%
inhibition at 16 µM (H460 cells; [12]): 47.2%

melting point: 85 to 88 °C
SMILES: COCCOc1cc2ncnc(Nc3cccc(-c4cn(Cc5cccc(OC)c5)nn4)c3)c2cc1OCCOC [e5]
